Source: DBAASP
Converted amounts (≈) assume the structure as drawn.

Legend:
Test in all cases: ≥ marks a high value that may be exact or a test limit, other limits are often not marked, values filed in µg/mL are converted to µM
[1] = tested on: Bacillus subtilis ATCC 6633
[2] = tested on: Candida albicans ATCC 10231
[3] = tested on: Escherichia coli ATCC 25922
Escherichia coli D31 = tested on: Escherichia coli D31
[4] = tested on: Pseudomonas aeruginosa ATCC 15442
[5] = tested on: Pseudomonas aeruginosa PAO1
[6] = tested on: Staphylococcus aureus ATCC 25923
[7] = tested on: Staphylococcus aureus ATCC 43300
Staphylococcus aureus MR = tested on: Staphylococcus aureus MR
[8] = tested on: Streptococcus mutans ATCC 25175
Bacillus subtilis 168 = tested on: Bacillus subtilis 168
[9] = tested on: Candida albicans F7-39/IDE99
Escherichia coli B = tested on: Escherichia coli B
[10] = tested on: Micrococcus luteus CCM 144
[11] = tested on: Pseudomonas aeruginosa ATCC 27853
Pseudomonas aeruginosa = tested on: Pseudomonas aeruginosa
Staphylococcus aureus 1 = tested on: Staphylococcus aureus 1
Staphylococcus aureus = tested on: Staphylococcus aureus
[12] = tested on: Staphylococcus epidermidis
[13] = tested on: Acinetobacter baumannii KCTC 2508
[14] = tested on: Klebsiella pneumoniae KCTC 2208
[15] = tested on: Cronobacter muytjensii ATCC 51329
[16] = tested on: Cronobacter sakazakii ATCC BAA-894
[17] = tested on: Cronobacter sakazakii DPC 6440
[18] = tested on: Cronobacter sakazakii DSM 4485
[19] = tested on: Escherichia coli NCIMB 11843
[20] = tested on: Klebsiella pneumoniae NCIMB 13218
[21] = tested on: Pseudomonas fluorescens NCIMB 9046
[22] = tested on: Salmonella enterica subsp. enterica serovar Typhimurium LT2
[23] = tested on: Staphylococcus aureus NCTC 8325-4
[24] = tested on: Staphylococcus aureus Newman
[25] = tested on: Staphylococcus aureus RF122
[26] = tested on: Staphylococcus aureus RN4220
[27] = tested on: Staphylococcus aureus SA113
Bacillus subtilis = tested on: Bacillus subtilis
Escherichia coli = tested on: Escherichia coli
Proteus vulgaris = tested on: Proteus vulgaris
Salmonella typhimurium = tested on: Salmonella typhimurium
Streptococcus pyogenes = tested on: Streptococcus pyogenes
Proteus mirabilis = tested on: Proteus mirabilis

Compound `CC[C@H](C)[C@H](NC(=O)[C@H](CCCCN)NC(=O)[C@H](CCC(N)=O)NC(=O)[C@H](CC(C)C)NC(=O)[C@@H](N)Cc1ccccc1)C(=O)N[C@H](C(=O)NCC(=O)N[C@@H](C)C(=O)N[C@@H](CC(C)C)C(=O)NCC(=O)N[C@@H](CCCCN)C(=O)N[C@@H](CC(C)C)C(=O)N[C@@H](Cc1ccccc1)C(N)=O)[C@@H](C)CC` [FLQKIIGALGKLF] has an MIC [1] of 12.5 µM (≈ 18.1 µg/mL), an MIC [2] of 25 µM (≈ 36.2 µg/mL) and an MIC [3] of 6.2 µM (≈ 8.97 µg/mL). For the same compound, the MIC (Escherichia coli D31) was 12.5 µM (≈ 18.1 µg/mL), the MIC [4] was 6.2 µM (≈ 8.97 µg/mL) and the MIC [5] was 12.5 µM (≈ 18.1 µg/mL). It also gave an MIC [6] of 1.6 µM (≈ 2.31 µg/mL), an MIC [7] of 6.2 µM (≈ 8.97 µg/mL) and an MIC (Staphylococcus aureus MR) of 6.2 µM (≈ 8.97 µg/mL). For the same compound, the MIC [8] was 3.1 µM (≈ 4.49 µg/mL).

For `CC[C@H](C)[C@H](NC(=O)CN)C(=O)N[C@@H](CC(C)C)C(=O)N[C@@H](CO)C(=O)N[C@@H](CO)C(=O)N[C@@H](CC(C)C)C(=O)N[C@@H](CC(C)C)C(=O)N[C@@H](CCCCN)C(=O)N[C@@H](CCCCN)C(=O)N[C@@H](Cc1c[nH]c2ccccc12)C(=O)N[C@@H](CCCCN)C(=O)N[C@@H](CCCCN)C(=O)N[C@H](C(=O)N[C@H](C(=O)N[C@@H](C)C(=O)N[C@@H](CCCCN)C(N)=O)[C@@H](C)CC)[C@@H](C)CC` [GILSSLLKKWKKIIAK], the MIC (Bacillus subtilis 168) was 7 µM (≈ 12.8 µg/mL), the MIC [9] was 11 µM (≈ 20.1 µg/mL) and the MIC (Escherichia coli B) was 7.5 µM (≈ 13.7 µg/mL). The MIC [10] was 3 µM (≈ 5.48 µg/mL), the MIC [11] was 5 µM (≈ 9.13 µg/mL) and the MIC (Pseudomonas aeruginosa) was 7.1 µM (≈ 13 µg/mL). For the same compound, the MIC (Staphylococcus aureus 1) was 7.8 µM (≈ 14.2 µg/mL), the MIC [7] was 20 µM (≈ 36.5 µg/mL) and the MIC (Staphylococcus aureus) was 20 µM (≈ 36.5 µg/mL). The MIC [12] was 2.7 µM (≈ 4.93 µg/mL).

With `CC[C@H](C)[C@H](NC(=O)CN)C(=O)N[C@@H](CC(C)C)C(=O)N[C@@H](CO)C(=O)N[C@@H](CO)C(=O)N[C@@H](CC(C)C)C(=O)N[C@@H](Cc1c[nH]c2ccccc12)C(=O)N[C@@H](CCCCN)C(=O)N[C@@H](CCCCN)C(=O)N[C@@H](CC(C)C)C(=O)N[C@@H](CCCCN)C(=O)N[C@@H](CCCCN)C(=O)N[C@H](C(=O)N[C@H](C(=O)N[C@@H](C)C(=O)N[C@@H](CCCCN)C(N)=O)[C@@H](C)CC)[C@@H](C)CC` [GILSSLWKKLKKIIAK] the MIC (Bacillus subtilis 168) was 7 µM (≈ 12.8 µg/mL), the MIC [9] was 11 µM (≈ 20.1 µg/mL) and the MIC (Escherichia coli B) was 3.4 µM (≈ 6.21 µg/mL). For the same compound, the MIC [10] was 3 µM (≈ 5.48 µg/mL), the MIC [11] was 5.3 µM (≈ 9.67 µg/mL) and the MIC (Pseudomonas aeruginosa) was 8.8 µM (≈ 16.1 µg/mL). It also gave an MIC (Staphylococcus aureus 1) of 2 µM (≈ 3.65 µg/mL), an MIC [7] of 5.3 µM (≈ 9.67 µg/mL) and an MIC (Staphylococcus aureus) of 5 µM (≈ 9.13 µg/mL). For the same compound, the MIC [12] was 2 µM (≈ 3.65 µg/mL).

`CC[C@H](C)[C@H](N)C(=O)N[C@@H](C)C(=O)N[C@@H](CCCN=C(N)N)C(=O)N[C@@H](CCCN=C(N)N)C(=O)N[C@@H](C)C(=O)N[C@@H](CC(C)C)C(=O)N[C@@H](CCCCN)C(=O)N[C@@H](CCCCN)C(=O)N[C@@H](C)C(=O)N[C@@H](CCCCN)C(=O)N[C@@H](CCCN=C(N)N)C(=O)N[C@@H](C)C(=O)N[C@@H](C)C(=O)N[C@@H](Cc1cnc[nH]1)C(=O)N[C@H](C(=O)N[C@H](C(=O)N1CCC[C@H]1C(=O)N[C@@H](CCC(N)=O)C(=O)N[C@@H](CS)C(=O)N[C@@H](CCCCN)C(=O)N[C@@H](CCCCN)C(=O)N[C@@H](Cc1ccccc1)C(=O)NCC(=O)N[C@@H](CCCN=C(N)N)C(=O)N[C@@H](CCCN=C(N)N)C(N)=O)[C@@H](C)CC)[C@@H](C)O` [IARRALKKAKRAAHTIPQCKKFGRR] gave an MIC [13] of 4 µM (≈ 11.6 µg/mL), an MIC [14] of 4 µM (≈ 11.6 µg/mL) and an MIC [11] of 2 µM (≈ 5.81 µg/mL).

`CC[C@H](C)[C@H](N)C(=O)N[C@@H](CCCCN)C(=O)N[C@@H](Cc1cnc[nH]1)C(=O)N[C@@H](CCC(N)=O)C(=O)NCC(=O)N[C@@H](CC(C)C)C(=O)N1CCC[C@H]1C(=O)N[C@@H](CCC(N)=O)C(=O)N[C@@H](CCC(=O)O)C(=O)N[C@@H](CC(=O)O)C(=O)O` [IKHQGLPQED] showed an MIC [15] of at least 2500 µM, an MIC [16] of at least 625 µM and an MIC [17] of at least 625 µM. For the same compound, the MIC [18] was at least 625 µM, the MIC [19] was at least 1250 µM and the MIC [20] was at least 1250 µM. It also gave an MIC [21] of at least 1250 µM, an MIC [22] of at least 2500 µM and an MIC [23] of at least 1250 µM. It also gave an MIC [24] of at least 1250 µM, an MIC [25] of at least 1250 µM and an MIC [26] of at least 1250 µM. It also gave an MIC [27] of at least 625 µM.

In the case of `CC(C)C[C@H](NC(=O)[C@H](CCCN=C(N)N)NC(=O)[C@@H]1CCCN1C(=O)[C@H](Cc1cnc[nH]1)NC(=O)[C@@H]1CCCN1C(=O)[C@@H]1CCCN1C(=O)[C@@H](N)CCCN=C(N)N)C(=O)O` [RPPHPRL], the MIC (Bacillus subtilis) is reported as at least 64 µM, the MIC (Escherichia coli) is reported as 64 µM (≈ 55.8 µg/mL) and the MIC (Proteus vulgaris) is reported as at least 64 µM. For the same compound, the MIC (Pseudomonas aeruginosa) was 64 µM (≈ 55.8 µg/mL), the MIC (Salmonella typhimurium) was at least 64 µM and the MIC [12] was at least 64 µM. For the same compound, the MIC (Streptococcus pyogenes) was at least 64 µM.

For `CC[C@H](C)[C@H](NC(=O)[C@H](Cc1ccc(O)cc1)NC(=O)[C@@H](NC(=O)[C@@H]1CCCN1C(=O)[C@@H](N)CCCN=C(N)N)C(C)C)C(=O)N1CCC[C@H]1C(=O)N[C@@H](CCC(N)=O)C(=O)N1CCC[C@H]1C(=O)N[C@@H](CCCN=C(N)N)C(=O)N1CCC[C@H]1C(=O)N1CCC[C@H]1C(=O)N[C@@H](Cc1cnc[nH]1)C(=O)N1CCC[C@H]1C(=O)N[C@@H](CCCN=C(N)N)C(=O)N[C@@H](CC(C)C)C(=O)O` [RPVYIPQPRPPHPRL], the MIC (Bacillus subtilis) was at least 64 µM, the MIC (Escherichia coli) was 16 µM (≈ 29.2 µg/mL) and the MIC (Proteus vulgaris) was at least 64 µM. The MIC (Pseudomonas aeruginosa) was 64 µM (≈ 117 µg/mL), the MIC (Salmonella typhimurium) was 0.5 µM (≈ 0.912 µg/mL) and the MIC [12] was at least 64 µM. It also gave an MIC (Streptococcus pyogenes) of at least 64 µM.

With `CC(C)C[C@H](NC(=O)[C@@H](N)C(C)C)C(=O)N[C@@H](CC(N)=O)C(=O)N[C@@H](CCC(=O)O)C(=O)N[C@@H](CC(N)=O)C(=O)N[C@@H](C)C(=O)N[C@@H](C)C(=O)N[C@@H](CCCN=C(N)N)C(=O)O` [VLNENAAR] the MIC [15] was at least 1250 µM, the MIC [16] was at least 1250 µM and the MIC [17] was at least 1250 µM. The MIC [18] was at least 625 µM, the MIC [19] was at least 2500 µM and the MIC [20] was at least 2500 µM. For the same compound, the MIC [11] was 32 µM (≈ 28.4 µg/mL), the MIC [21] was at least 1250 µM and the MIC [22] was at least 2500 µM. The MIC [23] was at least 625 µM, the MIC [24] was at least 1250 µM and the MIC [25] was at least 1250 µM. For the same compound, the MIC [26] was at least 1250 µM and the MIC [27] was at least 1250 µM.

`NC(N)=NCCC[C@H](NC(=O)[C@H](CCCN=C(N)N)NC(=O)[C@H](CCCN=C(N)N)NC(=O)[C@H](CCCN=C(N)N)NC(=O)[C@H](CCCN=C(N)N)NC(=O)[C@H](CCCN=C(N)N)NC(=O)[C@H](CCCN=C(N)N)NC(=O)[C@H](CCCN=C(N)N)NC(=O)[C@H](Cc1c[nH]c2ccccc12)NC(=O)[C@H](Cc1c[nH]c2ccccc12)NC(=O)[C@H](Cc1c[nH]c2ccccc12)NC(=O)[C@@H](N)Cc1c[nH]c2ccccc12)C(=O)O` [WWWWRRRRRRRR] gave an MIC (Proteus mirabilis) of 31.8 µM (≈ 64 µg/mL), an MIC (Pseudomonas aeruginosa) of over 31.8 µM and an MIC (Staphylococcus aureus) of 4.47 µM (≈ 9 µg/mL). The MIC (Streptococcus pyogenes) was 0.124 µM (≈ 0.25 µg/mL).
